The results in this text go back to ChEMBL document CHEMBL1201862, “PubChem BioAssay data set” (2004).

Each structure is given as a SMILES string. Active and inactive are the calls of the source. No rule for the calls is given here.

Common to all, as to format: functional
Test [1] can be described thus: growth suppression of beta-catenin-knockout colon cells, dose response, cell-based, HCT116, human colon tumor (AID 1045).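 Also: HCT116 colon tumor cells with beta catenin knocked out; cells exposed to compound for 60 hours.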
A short description of test [2]: Luminescence-based cell-based high throughput dose response assay to identify activators of the DAF-12 from the parasite S. stercoralis (ssDAF-12).
The target of the next test is T1, Hexokinase-1 (Homo sapiens, UniProt P19367).
T1 sequence (P19367 whole entry): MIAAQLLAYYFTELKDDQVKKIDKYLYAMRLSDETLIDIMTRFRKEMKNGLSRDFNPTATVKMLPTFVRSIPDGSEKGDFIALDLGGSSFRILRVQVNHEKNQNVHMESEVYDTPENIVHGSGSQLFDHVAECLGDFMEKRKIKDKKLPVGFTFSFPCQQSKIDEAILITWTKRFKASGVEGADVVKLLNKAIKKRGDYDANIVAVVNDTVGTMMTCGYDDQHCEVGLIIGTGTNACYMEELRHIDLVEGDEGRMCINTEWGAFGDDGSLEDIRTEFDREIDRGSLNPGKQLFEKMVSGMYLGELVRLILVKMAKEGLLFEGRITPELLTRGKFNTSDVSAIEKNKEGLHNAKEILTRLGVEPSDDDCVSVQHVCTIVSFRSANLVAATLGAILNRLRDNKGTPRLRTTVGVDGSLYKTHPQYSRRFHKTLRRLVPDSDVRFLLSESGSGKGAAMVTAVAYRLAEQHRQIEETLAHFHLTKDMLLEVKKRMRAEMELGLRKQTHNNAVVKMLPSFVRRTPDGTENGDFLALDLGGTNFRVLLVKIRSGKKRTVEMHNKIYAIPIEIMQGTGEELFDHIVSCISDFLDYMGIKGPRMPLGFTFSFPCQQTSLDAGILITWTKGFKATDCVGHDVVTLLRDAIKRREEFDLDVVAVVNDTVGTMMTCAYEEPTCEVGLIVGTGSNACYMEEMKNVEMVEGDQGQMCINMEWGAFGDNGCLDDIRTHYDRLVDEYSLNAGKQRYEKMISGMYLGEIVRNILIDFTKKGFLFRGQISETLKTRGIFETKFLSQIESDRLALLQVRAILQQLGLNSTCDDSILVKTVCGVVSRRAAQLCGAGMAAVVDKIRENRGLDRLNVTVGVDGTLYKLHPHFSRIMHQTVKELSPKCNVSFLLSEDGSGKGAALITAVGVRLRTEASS
The test is described as follows: SAR analysis of small molecule inhibitors of hexokinase domain containing I (HKDC1) in the hexokinase 1 selectivity assay. [Related pubchem assays (depositor defined):AID493160, AID493190].

As a reminder, the EC50 is the concentration that produces a half-maximal response. In the case of `Cc1nn(-c2ccccc2)c(Cl)c1CN(C(=O)CCl)c1ccc(Cl)cc1`, in test [1], the EC50 was 4.11 µM (active).

One may read the IC50 as the concentration needed to halve the response being measured. On to `Oc1ccccc1/C=C/c1noc(-c2ccccc2O)n1`, for which, in test [2], the IC50 was > 67.6 µM (inactive).

Consider `O=C(O)CSc1cc(NS(=O)(=O)c2ccc(Cl)cc2)c2ccccc2c1O`, for which the IC50 at Hexokinase-1 is > 80 µM (inactive).
